In article PMC9828224, “Expansion of the Catalytic Repertoire of Alcohol Dehydrogenases in Plant Metabolism” (Angewandte Chemie (International Ed. in English), 2022):

Assays:
GS = biological target: T1, GS (Catharanthus roseus, UniProt W8JWW7); assay: X-ray crystal structure of complex, […] Å; assay type: binding; settings: active site; catalytic and structural zinc bound
T1 construct: construct details only in supplement

CrDPAS = biological target: T2, CrDPAS (Catharanthus roseus, UniProt A0A1B1FHP3); assay: enzymatic turnover, products by MS and NMR with deuterated cofactor; assay type: biochemical; settings: NADPH or 4-pro-R-NADPD; 1,4-iminium reduction
T2 construct: gene DPAS; construct details only in supplement; text prints PDB 8B26 for both CrDPAS and apo TiDPAS2
T2 sequence (A0A1B1FHP3 1-365): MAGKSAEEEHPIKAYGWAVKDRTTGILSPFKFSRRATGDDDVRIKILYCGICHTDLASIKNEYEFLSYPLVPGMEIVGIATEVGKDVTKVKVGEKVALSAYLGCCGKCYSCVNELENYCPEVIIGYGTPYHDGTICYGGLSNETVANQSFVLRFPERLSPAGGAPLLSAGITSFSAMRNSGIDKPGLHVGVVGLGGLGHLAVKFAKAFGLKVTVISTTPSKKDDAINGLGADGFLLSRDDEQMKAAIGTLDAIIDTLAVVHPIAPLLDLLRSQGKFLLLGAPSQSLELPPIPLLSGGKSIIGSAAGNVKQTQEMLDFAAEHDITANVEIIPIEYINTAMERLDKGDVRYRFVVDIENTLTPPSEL

T1 sequence (W8JWW7 2-364): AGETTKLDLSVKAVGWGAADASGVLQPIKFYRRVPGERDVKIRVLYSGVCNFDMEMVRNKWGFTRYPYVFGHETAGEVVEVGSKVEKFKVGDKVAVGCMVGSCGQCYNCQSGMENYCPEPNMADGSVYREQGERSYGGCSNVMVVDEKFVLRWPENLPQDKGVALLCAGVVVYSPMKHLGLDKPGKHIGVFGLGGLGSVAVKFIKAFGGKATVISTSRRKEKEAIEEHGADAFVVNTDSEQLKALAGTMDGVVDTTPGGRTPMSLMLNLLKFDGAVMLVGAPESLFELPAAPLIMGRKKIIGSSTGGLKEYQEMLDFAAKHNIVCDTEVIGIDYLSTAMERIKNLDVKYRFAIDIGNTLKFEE

Structure (SMILES) | X-ray crystal structure of complex, 2.00 Å (GS) | enzymatic turnover, products by MS and NMR with deuterated cofactor (CrDPAS)
NC(=O)c1ccc[n+]([C@@H]2O[C@H](COP(=O)(O)OP(=O)(O)OC[C@H]3O[C@@H](n4cnc5c(N)ncnc54)[C@H](OP(=O)(O)O)[C@@H]3O)[C@@H](O)[C@H]2O)c1 [NADP+] | Active site of GS co‐crystallised with NADP^+ | 
C/C=C1/C=[N+]2CCc3c([nH]c4ccccc34)[C@@](COC(C)=O)(C(=O)OC)[C@H]1CC2 [precondylocarpine acetate] |  | we observed product formation when only DPAS and NADPH is incubated with precondylocarpine acetate
